Reference: publication PMC10254649, “Design, Synthesis, and Biological Evaluation of Potent and Selective Inhibitors of Ataxia Telangiectasia Mutated and Rad3-Related (ATR) Kinase for the Efficient Treatment of Cancer” (Molecules, 2023)
“And” between values parts separate entries of the source, which are not always exact repeats. Equal values may be shown once. Read-outs that look alike come from different tables or passages of the source.

Key:
HCT116 cells = assay: CCK-8 cell proliferation assay, HCT116; format: cell-based; conditions: Homo sapiens, HCT-116; CCK-8, 72 h, ATM-normal cell line, three independent experiments; read-out: IC50 ± SD, HCT116
Protocol: (§1) A549, HCT116, NCI-H23, and LoVo cells were purchased from the Cell Resources Center of Shanghai Academy of Life Sciences, Shanghai, China. A549 cells were cultured in McCoy’s5A medium supplemented with 10% FBS (KeyGEN Biotech, Nanjing, China) and 1% penicillin/streptomycin (Gibco, 15070-063). HCT116 cells were cultured in IMDM medium supplemented with 10% FBS (KeyGEN Biotech, Nanjing, China) and 1% penicillin/streptomycin (Gibco, 15070-063). NCI-H23 cells were cultured in RPMI 1640 medium supplemented with 10% FBS (KeyGEN Biotech, Nanjing, China) and 1% penicillin/streptomycin (Gibco, 15070-063). LoVo cells were cultured in F12K medium supplemented with 10% FBS (KeyGEN Biotech, Nanjing, China) and 1% penicillin/streptomycin (Gibco, 15070-063). All cells were cultured in an incubator at 37 °C under a 5% CO2 atmosphere.
(§2) For the assay, 3000/well cells were planted into 96-well plates for 24 h and then treated with the indicated doses of drugs or controls for 72 h. Following the manufacturer’s instructions, cell proliferation/survival was measured using the CCK-8 (KeyGEN Biotech, Nanjing, China) assay and plotted via GraphPad 8.0.

LoVo cells [1] = assay: Colony formation assay; format: cell-based, human; conditions: 14 days
From the text: LoVo cells at a concentration of 800 cells/well were exposed to various concentrations of ZH-12 for 14 days. After 14 days of treatment, the colonies were fixed with 4% paraformaldehyde, stained with 0.1% crystal violet, and imaged using an upright biological microscope (Olympus BX53, Tokyo, Japan). The experiments were repeated at least three times and plotted via GraphPad 8.0.

A549 cells = assay: CCK-8 cell proliferation assay, A549; format: cell-based; conditions: Homo sapiens, CCK-8, 72 h, ATM-normal cell line, three independent experiments, read-out: IC50 ± SD, A549
Protocol: as §1, §2

ATR = ATR (Homo sapiens, UniProt Q13535); assay: In vitro inhibitory activity against the ATR enzyme; format: biochemical
LoVo cells [2] = assay: CCK-8 cell proliferation assay, LoVo; format: cell-based; conditions: Homo sapiens, CCK-8, 72 h, ATM-deficient cell line, three independent experiments, read-out: IC50 ± SD, LoVo
Protocol: as §1, §2

LoVo cells [3] = assay: Annexin V-FITC/PI apoptosis assay by flow cytometry; format: cell-based, human; conditions: 1 μM
Protocol: The percentage of apoptotic cells was determined by the Annexin V-FITC/PI double staining kit (KeyGEN Biotech, Nanjing, China). According to the manufacturer’s instructions, LoVo cells were stained with Annexin V-FITC and PI. The signal of the FITC and PI was recorded by BD FACSCelesta Flow Cytometer (BD FACSCelesta, Becton, Dickinson and Company) and the FlowJo software.

207 kinases = assay: Kinase panel selectivity screen at 1 μM; format: biochemical, human; conditions: single concentration of 1 μM, duplicate
[4] = test system: p-ATR(Thr1989) and p-CHK1(Ser345); assay: Western blot of ATR/CHK1 signaling in LoVo xenograft tumors; format: in vivo, Balb/c nude mice; conditions: LoVo xenograft tumors, 50, 25 and 12.5 mg/kg
Protocol: LoVo cells with a density of 1 × 10^6 were inoculated in a small cell culture dish at a single density for 24 h and then treated with the specified concentration of 5% dimethyl sulfoxide or compound at different times. The cells were washed with cold PBS and lysed with RIPA buffer (Beyotime, Shanghai, China) containing protease inhibitors (Beyotime, Shanghai, China) and phosphatase inhibitors (Beyotime, Shanghai, China). After lysis of the total cell solution on ice for 60 min, the lysate was centrifuged (12,000 rpm, 4 °C, 20 min); The total protein concentrations obtained were determined using the BCA kit (Beyotime, Shanghai, China). A proper 6 × loading buffer was added before use, and the samples were denatured by boiling. Then, 30–100 μg of protein was loaded onto a 4–12% SDS-PAGE gel and then transferred to the PVDF membrane (Millipore). […] The software ImageJ was used to quantify the percentage degradation of proteins. […]
Balb/c nude mice (18–22 g, female, 4 weeks old) were purchased from Hangzhou Medical College (Hangzhou, China). […] Tumor size and animal weight were measured every 3 days. Tumor volume was calculated as tumor volume (cm^3) = (length × width^2)/2. […] The results were obtained from 5 test mice (mean ± SD) and calculated using GraphPad 8.0 software.

NCI-H23 cells = assay: CCK-8 cell proliferation assay, NCI-H23; format: cell-based; conditions: Homo sapiens, CCK-8, 72 h, ATM-deficient cell line, three independent experiments, read-out: IC50 ± SD, NCI-H23
Protocol: as §1, §2

LoVo cells [5] = assay: Comet assay for DNA damage; format: cell-based, human; conditions: 72 h
Protocol: The comet assay was performed following the protocol of the manufacturer of the Comet Assay Kit (KeyGEN Biotech, Nanjing, China). […] After 3 days of treatment, the cells (1 × 10^4/mL) were collected, mixed with low-melting agarose at a ratio of 1:10 (v/v), layered on slides, lysed in lysis buffer at 4 °C for 2 h, and then lysed in alkaline lysis solution at room temperature for 30 min. Following electrophoresis, the cells were stained with PI and observed with an […] biomicroscope (Olympus BX53, Tokyo, Japan). Three images were randomly captured per slide.

LoVo cells [6] = assay: Wound healing migration assay; format: cell-based, human; conditions: 48 h
Protocol: LoVo cells in the logarithmic phase were collected and seeded in 6-well plates and cultured overnight. A straight line was drawn across the cell with a sterile pipette tip. A culture medium containing different concentrations of ZH-12 or 0.1% DMSO (10% FBS) was added. Scratch widths were recorded under an inverted microscope (Olympus, Waltham, MA, USA) at 0 h and 48 h.

[7] = test system: p-ATR(Thr1989) and p-CHK1(Ser345); assay: Western blot of ATR/CHK1 signaling in HU-treated LoVo cells; format: cell-based, human; conditions: LoVo cells treated with HU (hydroxyurea)
Protocol: LoVo cells with a density of 1 × 10^6 were inoculated in a small cell culture dish at a single density for 24 h and then treated with the specified concentration of 5% dimethyl sulfoxide or compound at different times. The cells were washed with cold PBS and lysed with RIPA buffer (Beyotime, Shanghai, China) containing protease inhibitors (Beyotime, Shanghai, China) and phosphatase inhibitors (Beyotime, Shanghai, China). After lysis of the total cell solution on ice for 60 min, the lysate was centrifuged (12,000 rpm, 4 °C, 20 min); The total protein concentrations obtained were determined using the BCA kit (Beyotime, Shanghai, China). A proper 6 × loading buffer was added before use, and the samples were denatured by boiling. Then, 30–100 μg of protein was loaded onto a 4–12% SDS-PAGE gel and then transferred to the PVDF membrane (Millipore). The membrane was occluded for 1 h, incubated overnight with primary antibody at 4 °C, followed by washing 3 times with Tris-buffered saline and Tween 20 (TBST) for 10 min. After incubation with a second antibody with horseradish peroxidase for 60 min at room temperature, the membrane was washed 3 times for 10 min with TBST. Finally, blotting was performed with an enhanced chemiluminescence assay kit (KeyGEN Biotech, Nanjing, China). The software ImageJ was used to quantify the percentage degradation of proteins. […]

LoVo xenografts = assay: LoVo tumor xenograft mouse model, antitumor efficacy and tolerability; format: in vivo; conditions: for tumor growth inhibition (TGI): days 1-18, single agent
Protocol: Balb/c nude mice (18–22 g, female, 4 weeks old) were purchased from Hangzhou Medical College (Hangzhou, China). All mice were inoculated subcutaneously in the right flank with 5 × 10^6 LoVo cells to initiate tumor growth. When the mean tumor volume reached approximately 100 mm^3, all mice were randomly divided into 8 groups (n = 5 per group) based on body weight and volume. […] Cisplatin was administered twice a week at the indicated doses. Tumor size and animal weight were measured every 3 days. Tumor volume was calculated as tumor volume (cm^3) = (length × width^2)/2. Tumor inhibition rate (%) = (1 − mean tumor weight in the treatment group/mean tumor weight in the control group) × 100%. The results were obtained from 5 test mice (mean ± SD) and calculated using GraphPad 8.0 software.

Sequence of ATR (Q13535 whole entry): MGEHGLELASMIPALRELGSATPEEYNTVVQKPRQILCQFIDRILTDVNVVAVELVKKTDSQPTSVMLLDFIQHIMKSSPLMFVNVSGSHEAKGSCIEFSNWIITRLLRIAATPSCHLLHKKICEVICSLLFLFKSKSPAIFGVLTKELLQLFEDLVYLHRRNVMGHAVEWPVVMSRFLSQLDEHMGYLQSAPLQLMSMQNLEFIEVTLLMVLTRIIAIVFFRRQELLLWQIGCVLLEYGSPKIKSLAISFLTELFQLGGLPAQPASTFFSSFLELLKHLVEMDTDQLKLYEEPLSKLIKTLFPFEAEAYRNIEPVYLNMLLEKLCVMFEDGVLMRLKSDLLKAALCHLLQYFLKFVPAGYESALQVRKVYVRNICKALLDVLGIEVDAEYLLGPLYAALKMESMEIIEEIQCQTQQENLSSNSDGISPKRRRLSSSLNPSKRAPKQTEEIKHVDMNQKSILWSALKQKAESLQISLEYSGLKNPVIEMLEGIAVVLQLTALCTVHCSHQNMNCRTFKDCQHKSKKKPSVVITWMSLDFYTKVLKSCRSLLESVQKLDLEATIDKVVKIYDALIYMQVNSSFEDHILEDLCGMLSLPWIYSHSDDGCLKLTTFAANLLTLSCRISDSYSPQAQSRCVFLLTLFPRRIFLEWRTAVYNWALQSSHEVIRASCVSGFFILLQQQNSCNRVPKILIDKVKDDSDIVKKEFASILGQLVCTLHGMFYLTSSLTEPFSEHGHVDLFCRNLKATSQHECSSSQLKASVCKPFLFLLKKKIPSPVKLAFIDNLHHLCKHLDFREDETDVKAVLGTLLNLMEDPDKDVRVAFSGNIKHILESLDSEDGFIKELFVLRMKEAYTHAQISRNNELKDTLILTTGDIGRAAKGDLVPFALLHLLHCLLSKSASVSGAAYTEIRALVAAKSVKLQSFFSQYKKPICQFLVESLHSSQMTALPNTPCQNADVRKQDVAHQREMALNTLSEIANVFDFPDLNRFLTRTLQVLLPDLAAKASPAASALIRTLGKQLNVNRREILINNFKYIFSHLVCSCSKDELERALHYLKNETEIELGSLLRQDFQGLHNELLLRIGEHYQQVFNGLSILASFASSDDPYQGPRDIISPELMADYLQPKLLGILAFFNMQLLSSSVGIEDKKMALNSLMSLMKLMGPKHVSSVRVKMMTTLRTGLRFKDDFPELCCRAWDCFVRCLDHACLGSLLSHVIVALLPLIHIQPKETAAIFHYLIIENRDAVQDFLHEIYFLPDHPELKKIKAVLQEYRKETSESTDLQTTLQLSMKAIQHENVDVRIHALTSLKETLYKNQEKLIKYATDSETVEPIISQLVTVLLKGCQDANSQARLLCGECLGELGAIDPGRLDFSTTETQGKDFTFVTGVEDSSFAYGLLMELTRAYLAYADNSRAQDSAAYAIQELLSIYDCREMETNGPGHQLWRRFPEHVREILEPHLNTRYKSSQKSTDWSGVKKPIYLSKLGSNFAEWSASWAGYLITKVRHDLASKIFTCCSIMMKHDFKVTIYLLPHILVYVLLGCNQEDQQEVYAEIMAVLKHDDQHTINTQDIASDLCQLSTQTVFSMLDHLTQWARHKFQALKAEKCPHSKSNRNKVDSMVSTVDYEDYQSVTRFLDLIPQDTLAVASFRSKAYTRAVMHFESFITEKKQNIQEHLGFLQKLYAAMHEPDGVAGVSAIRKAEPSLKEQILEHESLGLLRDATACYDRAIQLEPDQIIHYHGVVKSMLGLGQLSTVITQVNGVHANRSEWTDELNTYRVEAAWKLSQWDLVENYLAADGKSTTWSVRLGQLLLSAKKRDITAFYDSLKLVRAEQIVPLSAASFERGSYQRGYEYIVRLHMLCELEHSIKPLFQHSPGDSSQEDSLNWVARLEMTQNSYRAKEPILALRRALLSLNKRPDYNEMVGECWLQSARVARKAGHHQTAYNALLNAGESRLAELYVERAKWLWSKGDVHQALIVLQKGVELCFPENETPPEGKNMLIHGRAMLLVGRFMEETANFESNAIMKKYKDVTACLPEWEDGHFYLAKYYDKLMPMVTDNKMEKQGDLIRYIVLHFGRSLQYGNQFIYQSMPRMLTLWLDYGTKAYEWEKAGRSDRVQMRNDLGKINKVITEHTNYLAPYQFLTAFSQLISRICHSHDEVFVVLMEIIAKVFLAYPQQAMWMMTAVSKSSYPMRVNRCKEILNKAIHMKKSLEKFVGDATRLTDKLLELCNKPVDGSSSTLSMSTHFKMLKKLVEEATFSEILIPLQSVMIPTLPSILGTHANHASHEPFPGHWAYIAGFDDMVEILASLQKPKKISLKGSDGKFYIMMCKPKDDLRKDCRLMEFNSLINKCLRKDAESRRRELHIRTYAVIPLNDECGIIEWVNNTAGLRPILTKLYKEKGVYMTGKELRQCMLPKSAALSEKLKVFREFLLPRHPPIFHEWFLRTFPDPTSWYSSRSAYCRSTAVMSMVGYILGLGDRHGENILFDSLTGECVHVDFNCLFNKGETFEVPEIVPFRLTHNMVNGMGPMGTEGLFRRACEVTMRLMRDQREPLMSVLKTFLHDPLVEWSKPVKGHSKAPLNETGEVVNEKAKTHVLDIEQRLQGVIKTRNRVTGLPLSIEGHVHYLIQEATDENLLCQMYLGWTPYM
Sequence of ATR (Q8WXE1 whole entry partner): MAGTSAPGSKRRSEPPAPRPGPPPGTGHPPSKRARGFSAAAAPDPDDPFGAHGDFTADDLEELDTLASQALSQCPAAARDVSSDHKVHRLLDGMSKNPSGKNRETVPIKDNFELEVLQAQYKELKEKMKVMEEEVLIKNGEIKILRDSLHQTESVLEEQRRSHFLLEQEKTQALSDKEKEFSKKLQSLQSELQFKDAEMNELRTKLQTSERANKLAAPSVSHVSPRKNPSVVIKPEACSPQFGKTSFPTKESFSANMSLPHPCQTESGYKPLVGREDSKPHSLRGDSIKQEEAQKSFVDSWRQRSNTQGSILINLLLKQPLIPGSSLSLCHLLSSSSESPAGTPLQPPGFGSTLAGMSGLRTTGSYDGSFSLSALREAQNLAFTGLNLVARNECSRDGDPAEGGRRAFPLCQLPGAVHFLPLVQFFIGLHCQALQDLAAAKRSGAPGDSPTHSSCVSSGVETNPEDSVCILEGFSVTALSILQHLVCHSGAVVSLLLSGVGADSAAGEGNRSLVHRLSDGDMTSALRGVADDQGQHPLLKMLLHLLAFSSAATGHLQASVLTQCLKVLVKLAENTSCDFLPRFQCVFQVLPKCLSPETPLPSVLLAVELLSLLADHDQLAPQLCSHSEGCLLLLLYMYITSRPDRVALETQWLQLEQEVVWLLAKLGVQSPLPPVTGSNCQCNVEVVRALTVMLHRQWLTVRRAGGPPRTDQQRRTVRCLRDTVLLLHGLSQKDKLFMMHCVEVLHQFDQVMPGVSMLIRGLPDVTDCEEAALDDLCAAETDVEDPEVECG

Structure (SMILES): C[C@@H]1COCCN1c1nc(-c2cccc3[nH]ccc23)nc2c1CCN(C(=O)CC#N)C2 [ZH-12, (R)-3-(2-(1H-indol-4-yl)-4-(3-methylmorpholino)-5,8-dihydropyrido[3,4-d]pyrimidin-7(6H)-yl)-3-oxopropanenitrile]
- IC50 (HCT116 cells): 1610 ± 80 nM
- colony formation (cell proliferation) (LoVo cells [1]): inhibited cell proliferation dose-dependently
- IC50 (A549 cells): 4740 ± 270 nM
- IC50 (ATR; mean ± SD of two independent experiments, read-out: ATR IC50 ± SD): 6.81 ± 0.04 nM
- IC50 (ATR; read-out: ATR IC50): 6.8 nM
- IC50 (LoVo cells [2]): 290 ± 10 nM
- apoptosis effect (percentage of apoptotic cells) (LoVo cells [3]): 33.8%
- inhibitory activities against 207 kinases (207 kinases): weak or no inhibitory activities against 207 kinases
- ATR phosphorylation (p-ATR Thr1989) and CHK1 phosphorylation (p-CHK1 Ser345) in tumors [4]: significantly inhibited ATR phosphorylation
- IC50 (NCI-H23 cells): 770 ± 130 nM
- DNA damage, comet assay (LoVo cells [5]): induced significant amounts of DNA damage dose-dependently
- tail intensity, comet assay (LoVo cells [5]; 0.5 µM): comparable tail intensity to AZD6738
- cell migration, wound healing (LoVo cells [6]): inhibited LoVo cell migration in a dose-dependent manner
- phosphorylation of ATR and CHK1, Western blot [7]: inhibited the phosphorylation of ATR and its downstream kinase CHK1 in a dose-dependent manner
- tumor growth inhibition (TGI) (LoVo xenografts; 12.5 mg/kg, intraperitoneally, twice daily): 27.0%
- tumor growth inhibition (TGI) (LoVo xenografts; 25 mg/kg twice daily, AZD6738 orally, ZH-12 intraperitoneally): 39.5%
- tumor growth inhibition (TGI) (LoVo xenografts; 50 mg/kg, intraperitoneally, twice daily): 53.7% and 53.8%
- body weight loss or toxicity (LoVo xenografts; ZH-12 12.5, 25 and 50 mg/kg BID for 18 days, single agent): No significant body weight loss or toxicity was observed
